From patent publication US11130756B2, “[1,2,4]Triazolo[4,3-A]pyridinyl substituted indole compounds” (BRISTOL-MYERS SQUIBB COMPANY, priority 2017, dated 2021)

Experiments:
Assay type in all cases: cell-based
human TLR9 = biological target: T1, human TLR9 (Homo sapiens, UniProt Q9NR96); assay: TLR9 inhibition reporter assay (HEK-Blue, SEAP); settings: HEK-Blue cells overexpressing human TLR9, ODN2006 5 nM, 22 hour incubation
T1 construct: host or cells: HEK-Blue cells
T1 sequence (Q9NR96 26-1032): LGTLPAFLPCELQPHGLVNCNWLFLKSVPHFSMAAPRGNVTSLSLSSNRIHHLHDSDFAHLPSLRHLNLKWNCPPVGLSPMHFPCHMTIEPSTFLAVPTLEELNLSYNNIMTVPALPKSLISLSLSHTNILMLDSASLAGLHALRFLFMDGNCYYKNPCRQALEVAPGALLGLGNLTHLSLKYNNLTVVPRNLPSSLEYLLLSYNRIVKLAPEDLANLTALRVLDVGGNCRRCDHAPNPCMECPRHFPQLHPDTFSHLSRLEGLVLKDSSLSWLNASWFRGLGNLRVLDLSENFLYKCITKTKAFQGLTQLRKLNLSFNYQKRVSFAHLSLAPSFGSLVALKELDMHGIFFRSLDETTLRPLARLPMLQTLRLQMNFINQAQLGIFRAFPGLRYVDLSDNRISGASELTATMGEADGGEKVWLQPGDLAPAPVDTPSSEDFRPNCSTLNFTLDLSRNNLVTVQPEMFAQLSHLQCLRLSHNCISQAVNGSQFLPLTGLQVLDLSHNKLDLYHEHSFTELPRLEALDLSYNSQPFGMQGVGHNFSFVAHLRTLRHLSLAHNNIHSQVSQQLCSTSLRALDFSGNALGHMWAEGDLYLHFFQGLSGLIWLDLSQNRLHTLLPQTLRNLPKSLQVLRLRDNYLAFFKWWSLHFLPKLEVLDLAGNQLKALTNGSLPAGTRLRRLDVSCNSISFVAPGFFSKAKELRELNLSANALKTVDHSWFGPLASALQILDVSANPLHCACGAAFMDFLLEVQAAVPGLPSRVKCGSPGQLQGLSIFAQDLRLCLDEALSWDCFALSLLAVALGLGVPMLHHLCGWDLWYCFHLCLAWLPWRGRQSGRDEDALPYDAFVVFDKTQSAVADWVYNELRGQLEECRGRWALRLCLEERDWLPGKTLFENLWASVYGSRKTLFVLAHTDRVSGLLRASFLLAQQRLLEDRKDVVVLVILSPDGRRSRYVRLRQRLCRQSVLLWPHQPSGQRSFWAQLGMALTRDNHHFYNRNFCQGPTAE
Summary of the method: (§1)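 HEK-Blue cells overexpressing human TLR7, TLR8 or TLR9 carry a SEAP reporter driven by NF-κB/AP-1 sites. Compounds (0.05 nM–50 μM) were preincubated 30 min at room temperature, then cells were stimulated with gardiquimod 7.5 μM (TLR7), R848 15.9 μM (TLR8) or ODN2006 5 nM (TLR9) for 22 h at 37 °C.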

human TLR7 = biological target: T2, human TLR7 (Homo sapiens, UniProt Q9NYK1); assay: TLR7 inhibition reporter assay (HEK-Blue, SEAP); settings: HEK-Blue cells overexpressing human TLR7, gardiquimod 7.5 μM, 22 hour incubation
T2 construct: host or cells: HEK-Blue cells
T2 sequence (Q9NYK1 27-1049): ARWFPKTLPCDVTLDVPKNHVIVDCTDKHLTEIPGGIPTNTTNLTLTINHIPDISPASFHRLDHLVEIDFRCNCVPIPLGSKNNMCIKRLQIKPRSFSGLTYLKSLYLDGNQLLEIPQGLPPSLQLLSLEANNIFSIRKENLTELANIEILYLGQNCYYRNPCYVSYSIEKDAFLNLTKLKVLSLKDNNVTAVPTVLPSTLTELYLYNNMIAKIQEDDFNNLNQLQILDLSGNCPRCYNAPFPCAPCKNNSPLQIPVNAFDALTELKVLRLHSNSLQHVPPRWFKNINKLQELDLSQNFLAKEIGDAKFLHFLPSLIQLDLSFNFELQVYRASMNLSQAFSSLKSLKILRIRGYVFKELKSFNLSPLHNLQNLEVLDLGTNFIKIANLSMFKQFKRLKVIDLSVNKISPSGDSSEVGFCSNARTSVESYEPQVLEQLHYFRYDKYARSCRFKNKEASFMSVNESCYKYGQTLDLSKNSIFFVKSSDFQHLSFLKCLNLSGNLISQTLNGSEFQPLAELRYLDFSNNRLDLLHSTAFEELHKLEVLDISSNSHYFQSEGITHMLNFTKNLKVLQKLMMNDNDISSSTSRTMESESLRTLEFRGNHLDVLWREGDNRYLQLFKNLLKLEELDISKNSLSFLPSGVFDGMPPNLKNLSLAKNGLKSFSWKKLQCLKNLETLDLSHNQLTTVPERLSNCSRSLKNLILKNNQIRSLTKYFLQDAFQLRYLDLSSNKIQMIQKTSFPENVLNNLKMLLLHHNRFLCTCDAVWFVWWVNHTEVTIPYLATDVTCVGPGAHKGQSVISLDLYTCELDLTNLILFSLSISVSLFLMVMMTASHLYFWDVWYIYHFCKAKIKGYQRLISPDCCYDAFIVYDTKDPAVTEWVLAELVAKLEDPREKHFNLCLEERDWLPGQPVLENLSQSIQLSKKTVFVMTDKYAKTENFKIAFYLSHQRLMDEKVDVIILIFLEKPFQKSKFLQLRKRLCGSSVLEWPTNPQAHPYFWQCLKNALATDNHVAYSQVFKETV
Summary of the method: as §1

human TLR8 = biological target: T3, human TLR8 (Homo sapiens, UniProt Q9NR97); assay: TLR8 inhibition reporter assay (HEK-Blue, SEAP); settings: HEK-Blue cells overexpressing human TLR8, R848 15.9 μM, 22 hour incubation
T3 construct: host or cells: HEK-Blue cells
T3 sequence (Q9NR97 27-1041): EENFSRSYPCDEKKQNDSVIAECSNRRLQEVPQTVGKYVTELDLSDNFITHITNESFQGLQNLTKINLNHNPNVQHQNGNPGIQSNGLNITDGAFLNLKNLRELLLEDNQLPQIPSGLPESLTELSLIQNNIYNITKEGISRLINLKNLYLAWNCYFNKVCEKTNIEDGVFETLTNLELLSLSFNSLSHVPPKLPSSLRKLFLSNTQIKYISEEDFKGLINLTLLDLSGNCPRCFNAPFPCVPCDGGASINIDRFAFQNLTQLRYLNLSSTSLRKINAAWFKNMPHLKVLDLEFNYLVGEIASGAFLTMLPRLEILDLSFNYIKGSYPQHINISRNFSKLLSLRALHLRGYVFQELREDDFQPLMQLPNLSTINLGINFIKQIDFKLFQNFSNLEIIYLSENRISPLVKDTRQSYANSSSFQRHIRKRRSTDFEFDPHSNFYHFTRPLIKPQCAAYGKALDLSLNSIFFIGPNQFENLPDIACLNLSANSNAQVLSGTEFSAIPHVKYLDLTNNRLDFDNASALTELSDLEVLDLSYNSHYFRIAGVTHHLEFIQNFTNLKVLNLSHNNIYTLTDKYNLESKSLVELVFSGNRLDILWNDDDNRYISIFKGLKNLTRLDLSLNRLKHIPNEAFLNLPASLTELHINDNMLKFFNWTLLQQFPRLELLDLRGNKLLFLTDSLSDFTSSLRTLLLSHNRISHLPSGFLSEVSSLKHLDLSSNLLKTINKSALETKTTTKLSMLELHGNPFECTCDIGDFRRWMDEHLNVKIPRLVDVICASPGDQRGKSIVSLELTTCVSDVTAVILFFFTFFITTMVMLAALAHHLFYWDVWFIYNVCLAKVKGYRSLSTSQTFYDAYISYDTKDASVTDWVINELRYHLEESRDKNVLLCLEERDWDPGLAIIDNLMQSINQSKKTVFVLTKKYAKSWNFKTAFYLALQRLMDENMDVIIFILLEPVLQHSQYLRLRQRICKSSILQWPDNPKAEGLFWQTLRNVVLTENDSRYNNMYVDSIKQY
Summary of the method: as §1

IC50 (human TLR9)	IC50 (human TLR7)	IC50 (human TLR8)	SMILES
7320 nM	13.7 nM	226 nM	Cc1c(-c2[nH]c3ccc(C4CC(C)N(CC5(C)COC5)C(C)C4)cc3c2C(C)C)cn2cnnc2c1C (single isomer, unassigned) [Example 114, 6-(5-(2,6-dimethyl-1-((3-methyloxetan-3-yl)methyl)piperidin-4-yl)-3-isopropyl-1H-indol-2-yl)-7,8-dimethyl-[1,2,4]triazolo[4,3-a]pyridine]
5160 nM	29.6 nM	7.9 nM	Cc1cc(-c2[nH]c3ccc(C4CCN(Cc5ncn(C)n5)CC4)cc3c2C(C)C)cn2c(C)nnc12 [Example 33, 6-(3-isopropyl-5-(1-((1-methyl-1H-1,2,4-triazol-3-yl)methyl)piperidin-4-yl)-1H-indol-2-yl)-3,8-dimethyl-[1,2,4]triazolo[4,3-a]pyridine]
3500 nM	0.9 nM	3.4 nM	COCCN1CCC(c2ccc3[nH]c(-c4cc(C)c5nncn5c4)c(C(C)C)c3c2)CC1 [Example 27, 6-(3-isopropyl-5-(1-(2-methoxyethyl)piperidin-4-yl)-1H-indol-2-yl)-8-methyl-[1,2,4]triazolo[4,3-a]pyridine]
3120 nM	4.6 nM	107 nM	Cc1c(-c2[nH]c3ccc(C4CCNCC4)cc3c2C(C)C)cn2cnnc2c1Cl [Example 10, 8-chloro-6-(3-isopropyl-5-(piperidin-4-yl)-1H-indol-2-yl)-7-methyl-[1,2,4]triazolo[4,3-a]pyridine]
677 nM	24.7 nM	147 nM	CC(C)c1c(-c2ccc3nncn3c2)[nH]c2ccc(C3CCN(C4CCOCC4)CC3)cc12 [Example 64, 6-(3-isopropyl-5-(1-(tetrahydro-2H-pyran-4-yl)piperidin-4-yl)-1H-indol-2-yl)-[1,2,4]triazolo[4,3-a]pyridine]
3120 nM	281 nM	402 nM	COCc1nnc2ccc(-c3[nH]c4ccc(C5CCN(CC(=O)N(C)C)CC5)cc4c3C(C)C)cn12 [Example 38, 2-(4-(3-isopropyl-2-(3-(methoxymethyl)-[1,2,4]triazolo[4,3-a]pyridin-6-yl)-1H-indol-5-yl)piperidin-1-yl)-N,N-dimethylacetamide]
3430 nM	81.7 nM	3.1 nM	Cc1cc(-c2[nH]c3ccc(C4CCN(CC(C)(C)O)CC4)cc3c2C(C)C)c(C)n2cnnc12 [Example 59, 1-(4-(2-(5,8-dimethyl-[1,2,4]triazolo[4,3-a]pyridin-6-yl)-3-isopropyl-1H-indol-5-yl)piperidin-1-yl)-2-methylpropan-2-ol]
1900 nM	1.5 nM	6.9 nM	Cc1cc(-c2[nH]c3ccc(C4CCN(CC(=O)N(C)C)CC4)cc3c2C(C)C)cn2cnnc12 [Example 12, 2-(4-(3-isopropyl-2-(8-methyl-[1,2,4]triazolo[4,3-a]pyridin-6-yl)-1H-indol-5-yl)piperidin-1-yl)-N,N-dimethylacetamide]
222 nM	31.8 nM	308 nM	CC(C)c1c(-c2ccc3nncn3c2)[nH]c2ccc(C3CCN(CC(=O)N(C)C)CC3)cc12 [Example 14, 2-(4-(2-([1,2,4]triazolo[4,3-a]pyridin-6-yl)-3-isopropyl-1H-indol-5-yl)piperidin-1-yl)-N,N-dimethylacetamide]

SMILES	IC50 (human TLR9)	IC50 (human TLR7)	IC50 (human TLR8)
Cc1c(-c2[nH]c3ccc(C4C[C@H]5CC[C@@H](C4)N5CC(=O)N(C)C)cc3c2C(C)C)cn2cnnc2c1C (single isomer, unassigned) [Example 118]	5460 nM	8.7 nM	159 nM
Cc1c(-c2[nH]c3ccc(C4C[C@H]5CC[C@@H](C4)N5C4COC4)cc3c2C(C)C)cn2cnnc2c1C (single isomer, unassigned) [Example 123]	8480 nM	7.6 nM	151 nM
